Results as given in patent US10287300B2 (Merck Patent GmbH, priority 2012, dated 2019).

Assays:
[1] = target: P70S6K (T412E mutant, Millipore) (Homo sapiens (Human), UniProt P23443, T412E); assay: P70S6K enzyme assay; assay type: biochemical; details: 24 μM ATP, 90 min at 25° C.
Description: P70S6K inhibitor compounds were diluted and plated in 96 well plates. A reaction mixture including the following components was then added to the compound plate to initiate the enzyme reaction; P70S6K (3 nM, T412E mutant, Millipore) was mixed with 24 μM ATP in an assay buffer containing 100 mM Hepes (pH 7.5), 5 mM MgCl2, 1 mM DTT, 0.015% Brij and 1 μM of the substrate peptide FITC-AHA-AKRRRLSSLRA-OH (derived from the S6 ribosomal protein sequence, FITC=fluorescein isothiocyanate, AHA=6-aminohexanoic acid). The reaction was incubated for 90 min at 25° C., before the addition of 10 mM EDTA to stop the reaction. The proportion of substrate and product (phosphorylated) peptide was analysed on a Caliper Life Sciences Lab Chip 3000, using a pressure of −1.4 psi, and upstream and downstream voltages of −3000 and −700 respectively. Product peaks were resolved before substrate peaks on the resulting chromatograms.

His-AKT (Full Length) = His-AKT (Full Length) (Homo sapiens (Human), UniProt P31749); assay: AKT enzyme assay; assay type: biochemical; details: 160 uM ATP, 90 min at 25° C.
Description: A TTP Mosquito liquid handling instrument was used to place 125 nl of the appropriate concentration of inhibitor in 100% DMSO (for a dose response curve calculation) into each well of a 384-well plate. To this reaction components were added to a final volume of 12.5 μl: • 0.1 ng/μl His-AKT (Full Length), (Invitrogen, Part # P2999, Lot #641228C). • 160 uM ATP (Fluka, 02055) • 1 mM DTT (Sigma, D0632) • 1 mM MgCl2 (Sigma, M1028) • 1 μM substrate peptide (sequence FITC-AHA-GRPRTSSFAEG-NH2), • synthesized by Tufts Peptide Synthesis service. • 100 mM HEPES pH 7.5 (Calbiochem, 391338) • 0.015% Brij-35 (Sigma, B4184)
The reaction was incubated for 90 min at 25° C., and then stopped by the addition of 70 μl of Stop buffer (100 mM HEPES pH 7.5, 0.015% Brij-35, 10 mM EDTA (Sigma, E7889)).
The plate was read on a Caliper LC 3000 in an Off-Chip mobility shift assay format, using the following parameters for a 12-sipper chip: screening pressure −2.3 psi, upstream voltage −500, and downstream voltage −3000. These conditions caused unphosphorylated substrate and phosphorylated product peptide to resolve as separate peaks allowing direct measurement of percentage of conversion of substrate to product. The percent conversion was plotted against concentration of inhibitor to produce a sigmoidal dose response curve, from which an IC50 was calculated.

Sequence of His-AKT (Full Length) (P31749 whole entry): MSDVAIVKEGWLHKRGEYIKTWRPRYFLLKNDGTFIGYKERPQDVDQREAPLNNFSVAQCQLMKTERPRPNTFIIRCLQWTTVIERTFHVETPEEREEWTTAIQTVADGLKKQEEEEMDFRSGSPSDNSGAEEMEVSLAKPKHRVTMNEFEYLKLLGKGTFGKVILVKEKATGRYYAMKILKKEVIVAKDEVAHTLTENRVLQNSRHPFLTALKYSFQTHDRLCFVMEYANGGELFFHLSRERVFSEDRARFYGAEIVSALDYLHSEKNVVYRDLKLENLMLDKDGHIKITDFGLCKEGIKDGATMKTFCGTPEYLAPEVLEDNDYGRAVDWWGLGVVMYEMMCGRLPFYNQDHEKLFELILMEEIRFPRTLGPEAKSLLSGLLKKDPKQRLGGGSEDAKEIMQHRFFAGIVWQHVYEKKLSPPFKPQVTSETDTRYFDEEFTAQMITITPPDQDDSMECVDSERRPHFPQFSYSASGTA
Sequence of P70S6K (T412E mutant, Millipore) (P23443 whole entry T412E): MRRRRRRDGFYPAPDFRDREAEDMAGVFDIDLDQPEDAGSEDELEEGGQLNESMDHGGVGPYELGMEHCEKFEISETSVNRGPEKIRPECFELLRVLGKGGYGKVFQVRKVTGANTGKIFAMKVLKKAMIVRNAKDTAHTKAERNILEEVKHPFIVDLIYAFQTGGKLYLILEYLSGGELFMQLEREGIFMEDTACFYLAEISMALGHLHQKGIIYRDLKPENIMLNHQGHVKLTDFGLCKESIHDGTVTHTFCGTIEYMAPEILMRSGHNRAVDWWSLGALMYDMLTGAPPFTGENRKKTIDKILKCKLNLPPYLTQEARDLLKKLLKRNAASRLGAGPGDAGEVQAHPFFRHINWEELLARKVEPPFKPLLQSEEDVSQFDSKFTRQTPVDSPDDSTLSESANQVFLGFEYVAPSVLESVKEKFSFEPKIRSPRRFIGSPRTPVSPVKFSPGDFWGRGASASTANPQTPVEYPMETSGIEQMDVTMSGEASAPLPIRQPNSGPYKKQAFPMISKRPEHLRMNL

Row | IC50 [1] | IC50 (His-AKT (Full Length)) | SMILES
1 | > 1000 nM | 101 to 500 nM | CN(C)CC(c1ccc(Cl)cc1)N1CCN(c2ncnc3c2OCCN3)CC1 (stereo not drawn) [Compound A4, {2-(4-Chlorophenyl)-2-[4-(7,8-dihydro-6H-pyrimido[5,4-b][1,4]oxazin-4-yl)-piperazin-1-yl]-ethyl}-dimethylamine]
2 | > 1000 nM | 101 to 500 nM | CN(C)CC(c1ccc(C(F)(F)F)cc1)N1CCN(c2ncnc3c2OCCN3)CC1 (stereo not drawn) [Compound A5, [2-[4-(7,8-Dihydro-6H-pyrimido[5,4-b][1,4]oxazin-4-yl)-piperazin-1-yl]-2-(4-trifluoromethylphenyl)-ethyl]-dimethylamine]
3 | 101 to 500 nM | 101 to 500 nM | CN(C)CC(c1ccc(C(F)(F)F)cc1)N1CCN(c2ncnc3c2CCN3)CC1 (stereo not drawn) [Compound A6, [2-[4-(6,7-Dihydro-5H-pyrrolo[2,3-d]pyrimidin-4-yl)-piperazin-1-yl]-2-(4-trifluoromethylphenyl)-ethyl]-dimethylamine]
4 | 101 to 500 nM | 101 to 500 nM | CN(C)CC(c1ccc(Cl)cc1)N1CCN(c2ncnc3c2CCN3)CC1 (stereo not drawn) [Compound A7, {2-(4-Chlorophenyl)-2-[4-(6,7-dihydro-5H-pyrrolo[2,3-d]pyrimidin-4-yl)-piperazin-1-yl]-ethyl}-dimethylamine]
5 | 101 to 500 nM | 25 to 100 nM | CN(C)CC(c1ccc(Cl)cc1)N1CCN(c2ncnc3c2CCCN3)CC1 (stereo not drawn) [Compound A8, {2-(4-Chlorophenyl)-2-[4-(5,6,7,8-tetrahydro-pyrido[2,3-d]pyrimidin-4-yl)-piperazin-1-yl]-ethyl}-dimethylamine]
6 | 25 to 100 nM | 25 to 100 nM | CN(C)CC(c1ccc(C(F)(F)F)cc1)N1CCN(c2ncnc3c2CCCN3)CC1 (stereo not drawn) [Compound A9, Dimethyl-[2-[4-(5,6,7,8-tetrahydro-pyrido[2,3-d]pyrimidin-4-yl)-piperazin-1-yl]-2-(4-trifluoromethyl-phenyl)-ethyl]-amine]
7 | 501 to 1000 nM | 101 to 500 nM | NCC(c1ccc(C(F)(F)F)cc1)N1CCN(c2ncnc3c2OCCN3)CC1 (stereo not drawn) [Compound A10, 2-[4-(7,8-Dihydro-6H-pyrimido[5,4-b][1,4]oxazin-4-yl)-piperazin-1-yl]-2-(4-trifluoromethylphenyl)-ethylamine]
8 | 501 to 1000 nM | 101 to 500 nM | NCC(c1ccc(Cl)cc1)N1CCN(c2ncnc3c2OCCN3)CC1 (stereo not drawn) [Compound A11, 2-(4-Chlorophenyl)-2-[4-(7,8-dihydro-6H-pyrimido[5,4-b][1,4]oxazin-4-yl)-piperazin-1-yl]-ethylamine]
9 | 501 to 1000 nM | 101 to 500 nM | CN(C)CC(c1ccc(C(F)(F)F)c(F)c1)N1CCN(c2ncnc3c2OCCN3)CC1 (stereo not drawn) [Compound A12, [2-[4-(7,8-Dihydro-6H-pyrimido[5,4-b][1,4]oxazin-4-yl)-piperazin-1-yl]-2-(3-fluoro-4-trifluoromethylphenyl)-ethyl]-dimethylamine]
10 | 25 to 100 nM | 101 to 500 nM | NCC(c1ccc(Cl)cc1)N1CCN(c2ncnc3c2CCN3)CC1 (stereo not drawn) [Compound A13, 2-(4-Chloro-phenyl)-2-[4-(6,7-dihydro-5H-pyrrolo[2,3-d]pyrimidin-4-yl)-piperazin-1-yl]-ethylamine]
11 | 501 to 1000 nM | 501 to 1000 nM | NCC(c1ccc(F)cc1)N1CCN(c2ncnc3c2CCN3)CC1 (stereo not drawn) [Compound A14, 2-[4-(6,7-Dihydro-5H-pyrrolo[2,3-d]pyrimidin-4-yl)-piperazin-1-yl]-2-(4-fluorophenyl)-ethylamine]
12 | 101 to 500 nM | 101 to 500 nM | CN(C)CC(c1ccc(Cl)c(F)c1)N1CCN(c2ncnc3c2CCN3)CC1 (stereo not drawn) [Compound A15, {2-(4-Chloro-3-fluoro-phenyl)-2-[4-(6,7-dihydro-5H-pyrrolo[2,3-d]pyrimidin-4-yl)-piperazin-1-yl]ethyl}-dimethylamine]
13 | 25 to 100 nM | 25 to 100 nM | NCC(c1ccc(C(F)(F)F)cc1)N1CCN(c2ncnc3c2CCCN3)CC1 (stereo not drawn) [Compound A16, 2-[4-(5,6,7,8-Tetrahydro-pyrido[2,3-d]pyrimidin-4-yl)-piperazin-1-yl]-2-(4-trifluoromethyl-phenyl)-ethylamine]
14 | 101 to 500 nM | 25 to 100 nM | NCC(c1ccc(Cl)cc1)N1CCN(c2ncnc3c2CCCN3)CC1 (stereo not drawn) [Compound A17, 2-(4-Chloro-phenyl)-2-[4-(5,6,7,8-tetrahydro-pyrido[2,3-d]pyrimidin-4-yl)-piperazin-1-yl]-ethylamine]
15 | 101 to 500 nM | 25 to 100 nM | CN(C)CC(c1ccc(Cl)c(F)c1)N1CCN(c2ncnc3c2CCCN3)CC1 (stereo not drawn) [Compound A18, {2-(4-Chloro-3-fluoro-phenyl)-2-[4-(5,6,7,8-tetrahydro-pyrido[2,3-d]pyrimidin-4-yl)-piperazin-1-yl]-ethyl}-dimethylamine]
16 | 25 to 100 nM | 25 to 100 nM | CN(C)CC(c1ccc(C(F)(F)F)c(F)c1)N1CCN(c2ncnc3c2CCCN3)CC1 (stereo not drawn) [Compound A19, {2-(3-Fluoro-4-trifluoromethyl-phenyl)-2-[4-(5,6,7,8-tetrahydro-pyrido[2,3-d]pyrimidin-4-yl)-piperazin-1-yl]-ethyl}-dimethylamine]
17 | 101 to 500 nM | 25 to 100 nM | CN(C)CC(c1ccc(C(F)(F)F)c(F)c1)N1CCN(c2ncnc3c2CCN3)CC1 (stereo not drawn) [Compound A20, [2-[4-(6,7-Dihydro-5H-pyrrolo[2,3-d]pyrimidin-4-yl)-piperazin-1-yl]-2-(3-fluoro-4-trifluoromethyl-phenyl)-ethyl]-dimethylamine]
18 | > 1000 nM | 501 to 1000 nM | NCC(c1ccc(F)cc1)N1CCN(c2ncnc3c2CCCN3)CC1 (stereo not drawn) [Compound A21, 2-(4-Fluoro-phenyl)-2-[4-(5,6,7,8-tetrahydro-pyrido[2,3-d]pyrimidin-4-yl)-piperazin-1-yl]-ethylamine]
19 | 101 to 500 nM | 25 to 100 nM | NCC(c1ccc(C(F)(F)F)cc1)C1CCN(c2ncnc3c2CCCN3)CC1 (stereo not drawn) [Compound A22, 2-[1-(5,6,7,8-Tetrahydro-pyrido[2,3-d]pyrimidin-4-yl)-piperidin-4-yl]-2-(4-trifluoromethyl-phenyl)-ethylamine]
20 | > 1000 nM | > 1000 nM | NCC(c1ccc(C(F)(F)F)cc1)C1CCN(c2ncnc3c2OCCN3)CC1 (stereo not drawn) [Compound A23, 2-[1-(7,8-Dihydro-6H-pyrimido[5,4-b][1,4]oxazin-4-yl)-piperidin-4-yl]-2-(4-trifluoromethyl-phenyl)-ethylamine]
21 | > 1000 nM | > 1000 nM | CN(C)CC(c1ccc(F)cc1)N1CCN(c2ncnc3c2NC(=O)CN3)CC1 (stereo not drawn) [Compound A24, 4-{4-[2-dimethylamino-1-(4-fluoro-phenyl)-ethyl]-piperazin-1-yl}-7,8-dihydro-5H-pteridin-6-one]
22 | > 1000 nM | > 1000 nM | CN(C)CC(c1cccc(F)c1)N1CCN(c2ncnc3c2NC(=O)CN3)CC1 (stereo not drawn) [Compound A25, 4-{4-[2-dimethylamino-1-(3-fluoro-phenyl)-ethyl]-piperazin-1-yl}-7,8-dihydro-5H-pteridin-6-one]
23 | 501 to 1000 nM | 101 to 500 nM | CN(C)CC(c1ccc(Cl)cc1)N1CCN(c2ncnc3c2NC(=O)CN3)CC1 (stereo not drawn) [Compound A26, 4-{4-[2-dimethylamino-1-(4-chloro-phenyl)-ethyl]-piperazin-1-yl}-7,8-dihydro-5H-pteridin-6-one]
24 | > 1000 nM | > 1000 nM | CN(C)CC(c1cccc(Cl)c1)N1CCN(c2ncnc3c2NC(=O)CN3)CC1 (stereo not drawn) [Compound A27, 4-{4-[2-dimethylamino-1-(3-chloro-phenyl)-ethyl]-piperazin-1-yl}-7,8-dihydro-5H-pteridin-6-one]

Row | SMILES | IC50 [1] | IC50 (His-AKT (Full Length))
25 | NCC(c1ccc(C(F)(F)F)cc1)C1CCN(c2ccnc3c2CCCN3)CC1 (stereo not drawn) [Compound A1, 2-(1-(5,6,7,8-tetrahydro-1,8-naphthyridin-4-yl)piperidin-4-yl)-2-(4-(trifluoromethyl)phenyl)ethanamine] | 25 to 100 nM | 101 to 500 nM
26 | NCC(c1ccc(C(F)(F)F)cc1)C1CCN(c2ccnc3c2CCN3)CC1 (stereo not drawn) [Compound A2, 2-(1-(2,3-dihydro-1H-pyrrolo[2,3-b]pyridin-4-yl)piperidin-4-yl)-2-(4-(trifluoro-methyl)phenyl)ethanamine] | 25 to 100 nM | 25 to 100 nM
27 | NCC(c1ccc(C(F)(F)F)cc1)C1CCN(c2ccnc3c2CCC3)CC1 (stereo not drawn) [Compound A3, 2-(1-(6,7-dihydro-5H-cyclopenta[b]pyridin-4-yl)piperidin-4-yl)-2-(4-(trifluoromethyl)phenyl)ethanamine] | > 1000 nM | > 1000 nM
